# Assay results as given in a melting point compilation (Tetko et al.; mined from patent text by program, amines drawn as free bases though some values may be those of a salt).
row,SMILES,melting point
1,CS(=O)(=O)OCc1cc(-c2ccc3c(c2)CCO3)nn(Cc2ccccc2Cl)c1=O,118 to 119 °C
2,CSc1nc(-c2ccccn2)n(-c2ccc(C)c(C)c2)c(=O)c1C#N,218 to 223 °C
3,C[C@@H]1S[C@@H](C(=O)Nc2ccc(CN3C(=O)CNC3=O)cc2)Cc2cc3c(cc2C1=O)OCO3,139 to 144 °C
4,CCC(O)c1ccccc1CS(=O)(=O)NC(=O)Nc1nc(OC)cc(OC)n1 (stereo not given),95 to 98 °C
5,N#CSc1nc(Cl)ncc1I,185 to 186 °C
6,CCCN(c1ncnc2c1ncn2C1OC(CO)C(O)C1O)n1cccc1 (stereo not given),136 to 138 °C
7,CCOC(=O)c1cn(CCCl)c2cc(-n3cccc3)c(F)cc2c1=O,254 to 256 °C
8,CCC(O)c1c(C)c(NC(=O)CC(C)(C)C)c(C)c2c1OCC2c1ccc(C(C)C)cc1 (stereo not given),165 to 167 °C
9,Nc1nc(NCCN2CCN(C(c3ccccc3)c3ccccc3)CC2)nc(-c2cc(Cl)ccc2Cl)n1,192 to 193 °C
10,Cn1c(-c2cnc(-c3ccccc3)nc2)cnc1-c1ccccc1,211 °C
11,C#Cc1ccc(CO[C@@H]2COc3nc([N+](=O)[O-])cn3C2)cc1,162 to 164 °C
12,CCOCCCc1ccc(-c2ccc3c(c2)C=C(C(=O)Nc2ccc(CN(C)C4CCOCC4)cc2)CCS3(=O)=O)cc1,217 to 219 °C
13,CCOC(=O)CC1=CC2C(CCC3(C)C(O)CCC23)c2ccc(O)cc21 (stereo not given),178 °C
14,CCCCCCCCCCCCCCCCCCOc1cccc(C(=O)O)c1OCCCOc1ccc(OCc2ccccc2)cc1,75 to 76 °C
15,COC(=O)/C(=C/C=C/c1cc2cc(OC)ccc2[nH]1)OC,150 to 151 °C
16,COC(=O)CCCCCCCCOC1OC(CO)C(O)C(OC2OC(CO)C(O)C(O)C2O)C1NC(C)=O (stereo not given),208 to 210 °C
17,CC(C)(CCl)C(=O)N(O)Cc1ccccc1Cl,108 to 110 °C
18,Cc1ccc(C2CC(C(F)(F)F)=NN2c2ccc(S(N)(=O)=O)cc2)cc1 (stereo not given),140 to 143 °C
19,Cc1ccc2c(c1)C(=O)C(=O)N2CCCN(C(C)C)C(C)C,87 to 89 °C
20,CCCN(CCC)CCCCCOc1ccc2oc(-c3ccc(OC)cc3)cc(=O)c2c1,63 to 64 °C
21,O=C(O)c1ccc(NCc2ccc(Cl)cc2)cc1,206 to 208 °C
22,O=C(O)c1ccc(CCCC2SCC(=O)N2CCC2(O)CCCCCC2)cc1 (stereo not given),146 to 148 °C
23,O=C(Nc1ccccc1)C1=C(O)c2cccc(-c3ccccc3)c2OS1,175 °C
24,CC(C)(C)C(=O)OCOC(=O)C1N2C(=O)C(NC(=O)C(N)c3ccccc3)C2SC1(C)C (stereo not given),114 to 116 °C

row,SMILES,melting point
1,CCCC[C@]1(CC)CSc2cc(OC)c(OC)cc2[C@@H](c2ccccc2)N1,64 to 66 °C
2,CCOC(=O)CCCCCCCCCCSc1nc(-c2ccccc2)c(-c2ccccc2)[nH]1,57 to 59 °C
3,N#CCc1c[nH]c2ccc(CS(=O)(=O)Oc3ccccc3)cc12,134 to 135 °C
4,COC(=O)Nc1ccc2ccccc2c1-c1c(P(=O)(c2ccccc2)c2ccccc2)ccc2ccccc12,128 °C
5,COc1ccc(N2CCN(C3CN(C4c5c(C)cc(C)c(C)c5OC4(C)C)CCN3c3ccccc3)CC2)cc1 (stereo not given),144 to 145 °C
6,COc1cccc(CNC(=O)c2nc3ccc(SC)cc3c(=O)[nH]2)c1,168 to 170 °C
7,O=C(Nc1cccc(C(F)(F)F)c1F)c1ccccc1NCc1ccc(=O)[nH]c1,185 to 186 °C
8,COc1ccc(N2CCC(=O)N(c3ccc(C)cc3)CC2)c(-c2ccc(N(C)C)cc2)n1,174 to 175 °C
9,Cc1ccc(NC(=O)c2ccc(C(=O)Nc3ccccc3N)s2)cc1Nc1nccc(-c2cccnc2)n1,280 °C
10,OCCCc1nc2cccnc2[nH]1,151 to 153 °C
11,CSc1nn2c(N)cc(C)nc2c1S(=O)(=O)c1ccccc1,> 230 °C
12,Cc1ccc(-c2cncnc2C#N)cc1,107 to 109 °C
13,CCOC(=O)C(Br)=CC1C(C(=O)OC(C#N)c2cccc(Oc3ccccc3)c2)C1(C)C (stereo not given),69 °C
14,CCc1ccc(N(Cc2ccc(N(C)C)cc2)C(=O)C2CCCc3ccccc32)cc1 (stereo not given),109 to 110 °C
15,CCNc1cc(-c2c[nH]c(N)n2)ccn1,200 to 202 °C
16,COc1ccc2c(c1)NC(=O)CC(C(=O)O)C2 (stereo not given),202 to 204 °C
17,O=c1cc(-c2nc3ccccc3[nH]2)oc2ccccc12,232 °C
18,CC(C)(F)Cn1c(N)nc2c(N)nc3ccccc3c21,251 °C
19,CC(C)c1cc(S(=O)(=O)c2c(Br)cc(CCC(=O)O)cc2Br)ccc1O,186 to 188 °C
20,COc1ccc2c(c1)C(C)(C)NC2=O,146 to 147 °C
21,Cc1c(CCC2CC(OC3CCCCO3)CC(=O)O2)c2c(c(C)c1OC(=O)c1ccccc1)CC(C)(C)O2 (stereo not given),139 to 140 °C
22,O=C(Nc1ccc(Oc2ccc(Cl)cc2)cc1)Nc1nonc1-c1ccccc1,195 °C
23,CC(C)COC(=O)CCC1NCC(=O)N1 (stereo not given),50 to 52 °C
24,CCC1CCC(C2CCC(CC)CC2)CC1 (stereo not given),-6 °C

row,SMILES,melting point
1,OCCCCc1n[nH]c2ccc(C(F)(F)F)cc12,74 to 76 °C
2,O=c1c2ccccc2n(-c2cccc([N+](=O)[O-])c2)c2nc3ccccc3n12,294 °C
3,CC12CCC(C1)C(C)(C)C2(S)CCN (stereo not given),42 to 43 °C
4,CCCOc1cc(C)c2cc(Cn3ccnc3)ccc2n1,138 °C
5,COc1ccc2c(c1)c(-c1ccccc1)nc(=O)n2CC1CC1,114 to 115 °C
6,O=C(O)c1ccc(OC(=O)c2cccc(C34CC5CC(CC(C5)C3)C4)c2)cc1,237 to 239 °C
7,CCC(=O)NCC[C@@H]1CCc2cc(Br)c3c(c21)CCO3,129 to 131 °C
8,C=CC1CC2=CC(=O)CCC2C2CCC3(C)C(OC(C)=O)CCC3C12 (stereo not given),130 to 134 °C
9,O=C(O)c1cn(Cc2ccccc2)c2cc(Cl)c(F)cc2c1=O,250 °C
10,CS(=O)(=O)Nc1ccc(C(=O)NCC23CCCN(CCC2)C3)cc1,137 to 139 °C
11,O=C(Nc1ccc(Br)c2c1C(=O)c1ccccc1C2=O)c1ccccc1,300 °C
12,COC(=O)c1scc(-c2ccccc2)c1-c1ccc(S(=O)O)c(F)c1,133 °C
13,Cc1ccc(NC(=O)c2c(C)cccc2N)cc1,217 to 220 °C
14,CC1(C)CC(Nc2nc(NC3CC(C)(C)NC(C)(C)C3)nc(NC3CC(C)(C)NC(C)(C)C3)n2)CC(C)(C)N1,219 to 221 °C
15,COc1ccc(C(=O)N2CCNC2=Nc2c(Cl)cccc2Cl)cc1OC,201 to 204 °C
16,CCOC(=O)C(=O)c1c[nH]c2ccc(CNS(C)(=O)=O)cc12,218 to 220 °C
17,COc1ccccc1Oc1c(NS(=O)(=O)c2ccc(C(C)(C)C)cc2)nc(OCCO)nc1OCCOc1ncc(Br)cn1,73.5 to 77 °C
18,CCc1ccc(C(=NO)c2ccc(F)cc2)c(O)c1,130 to 132 °C
19,NC=C1C(=O)c2ccccc2OC1c1ccccc1 (stereo not given),149 to 152 °C
20,C=Cc1cc(C=Cc2cc(C(C)(C)C)cc(C(C)(C)C)c2)cc(C=Cc2cc(C(C)(C)C)cc(C(C)(C)C)c2)c1,143 to 145 °C
21,CS(=O)(=O)N1CCC=CCC1,95 to 96 °C
22,CS(=O)(=O)c1ccc(-c2cnn(-c3cccc(-c4ccc(F)cc4)c3)c(=O)c2-c2ccc(F)cc2)cc1,222 to 225 °C
